Measurements from publication PMC8552049 (SLAS discovery : advancing life sciences R & D, 2021).
Like-named read-outs stand apart in the source and are kept apart here. Each block holds one molecule with its values, some of them ahead of it.

Columns and labels:
[1] = biological target: T1, RGS7/Gβ5/R7BP complex (Homo sapiens, UniProt P49802); assay: TR-FRET assay of RGS7/Gβ5 interaction with R7BP, inhibitors mode; format: binding
T1 sequence (P49802 1-495): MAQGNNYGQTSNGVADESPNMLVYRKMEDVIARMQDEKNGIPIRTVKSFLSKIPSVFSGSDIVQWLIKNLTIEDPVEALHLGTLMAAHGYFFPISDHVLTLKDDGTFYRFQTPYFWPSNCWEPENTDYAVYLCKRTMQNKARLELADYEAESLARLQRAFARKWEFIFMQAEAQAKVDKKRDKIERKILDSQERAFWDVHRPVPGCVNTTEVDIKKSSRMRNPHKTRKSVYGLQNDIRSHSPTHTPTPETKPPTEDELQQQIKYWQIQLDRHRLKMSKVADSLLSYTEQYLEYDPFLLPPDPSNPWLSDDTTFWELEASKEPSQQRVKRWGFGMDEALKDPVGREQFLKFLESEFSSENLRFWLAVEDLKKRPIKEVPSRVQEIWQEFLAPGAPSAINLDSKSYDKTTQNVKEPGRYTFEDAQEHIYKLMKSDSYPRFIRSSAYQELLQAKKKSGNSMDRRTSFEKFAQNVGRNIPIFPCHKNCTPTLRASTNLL
T1 sequence (O14775 43-395 partner limits assumed): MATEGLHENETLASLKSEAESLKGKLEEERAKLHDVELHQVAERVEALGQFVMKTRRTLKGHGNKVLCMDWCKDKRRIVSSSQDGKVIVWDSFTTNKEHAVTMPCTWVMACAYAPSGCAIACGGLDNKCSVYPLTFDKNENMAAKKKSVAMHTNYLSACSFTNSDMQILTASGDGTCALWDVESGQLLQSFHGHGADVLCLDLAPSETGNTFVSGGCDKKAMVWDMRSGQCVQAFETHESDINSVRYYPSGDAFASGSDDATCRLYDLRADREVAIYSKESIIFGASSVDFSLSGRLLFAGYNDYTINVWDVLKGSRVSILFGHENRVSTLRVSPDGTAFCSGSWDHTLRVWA

[2] = biological target: T1, RGS7/Gβ5/R7BP complex; assay: TR-FRET assay of RGS7/Gβ5 interaction with R7BP, activators mode; format: binding

IC50 [1]: 173 nM | maximum inhibition ([1]; tertiary screening, first HTS campaign, concentration response curves): 54.2 ± 0.84%
Structure (SMILES): O=C1CCCN1C(=S)C(=S)N1CCCC1=O [SR-01000319258–1, 1-[2-(2-oxopyrrolidin-1-yl)-2-sulfanylideneethanethioyl]pyrrolidin-2-one]

Structure (SMILES): NCCc1cc(O)c(O)cc1O [6-hydroxydopamine]
IC50 ([1]; IC50, inhibition of complex formation, initial dose response studies): 7650 ± 3740 nM

Structure (SMILES): NC(=O)c1cc([N+](=O)[O-])cc([N+](=O)[O-])c1 [nitromide]
EC50 [2]: 760 ± 100 nM
